Measured values reported in US12539285B2, “Therapeutic agent for hypertrophic cardiomyopathy” (JUNTENDO EDUCATIONAL FOUNDATION, priority 2021, dated 2026).

What was measured:
[1] = system: myocardial cells derived from iPS cells of hypertrophic cardiomyopathy (HCM) patient; assay: Fluorescent calcium imaging, peak width of Ca-imaging waveform; format: cell-based; settings: 10 μM and 30 μM 5-aminolevulinic acid added from 7th day after seeding; FIG. 4
Text: The determinant of the myocardial relaxation rate is the dissociation rate of myosin and actin, and one of factors of determining the dissociation rate is the Ca^2+ uptake function of ATPase present in the longitudinal tubules of sarcoplasmic reticulum. Accordingly, using the above-mentioned myocardial cells derived from iPS cells of hypertrophic cardiomyopathy (HCM) patient, the peak width of a Ca-imaging waveform, which reflects the disappearance rate of Ca^2+ in myocardial cells (i.e., the uptake rate of Ca^2+ into the sarcoplasmic reticulum) by addition of 5-aminolevulinic acid, was measured. […]
As the measurement apparatus for high content analysis, CQ1 Image Cytometer of Yokogawa Electric Corporation was used, and the measurement was performed with excitation light of 488 nm and fluorescence at 500 to 550 nm (spinning-disk confocal unit with microlens array). […]
Over the entire screen of the obtained image data, the fluorescence intensity was digitized over time to obtain fluorescence waveforms. […] The parameters calculated from a waveform were the line width (sec) at each of 10%, 20%, 30%, 50%, 70%, and 90% of the waveform height, the length (sec) of interval between each wave, and the fluorescence intensity (ΔF).

[2] = system: myocardial cells derived from iPS cells of hypertrophic cardiomyopathy patient (MYH7 R403Q); assay: Myocardial relaxation rate (SONY SI8000) in HCM patient iPS-derived myocardial cells; format: cell-based; settings: ALA/SFC 10 μM/5 μM, 30 μM/1 μM, 100 μM/50 μM; measured Day 20 and Day 26 vs before administration (Day 15); FIG. 1
Description: (§1) Myocardial cells differentiated from iPS cells derived from hypertrophic cardiomyopathy patient were purchased, seeded, and cultured and were then administered with 5-aminolevulinic acid and sodium ferrous citrate (ALA/SFC). As myocardial cells, […] Cardiomyocytes (MYH7 R403Q) (C1081, cat. #556-34781) (FUJIFILM Cellular Dynamics, Inc.) was used. As a control, myocardial cells derived from iPS cells of normal subject (Cell Cardiomyocytes (Control) (C1056, cat. #551-33491) (FUJIFILM Cellular Dynamics, Inc.) was used. As the culture medium for cell seeding, (iCell Plating medium (M1001, cat. #550-33581) (FUJIFILM Cellular Dynamics, Inc.) was used.
(§2) In the cell culture, as the culture medium, iCell Maintenance medium (M1003, cat. #557-3359I) (FUJIFILM Cellular Dynamics, Inc.) was used.
(§3) • Day 1: Cell seeding (myocardial cells derived from iPS cells of hypertrophic cardiomyopathy patient, myocardial cells derived from iPS cells of normal subject). The cells were seeded at 3×10^4 per well in a 96-well plastic plate (nunc); • Day 15: The relaxation rate before administration was measured using SONY SI8000, and ALA/SFC were then administered on the same day at the following doses. The doses were four groups of 0 μM/0 μM, 10 μM/5 μM, 30 μM/1 μM, and 100 μM/50 μM of ALA/SFC for each of the disease myocardial cells and the normal myocardial cells. […]

[3] = system: zebrafish cardiomyopathy model (myocardial troponin T knockdown (tnnt2a KD)); assay: Zebrafish cardiomyopathy model (tnnt2a KD), peak filling rate by heart imaging; format: in vivo; settings: ALA/SFC 100 μM/50 μM in culture solution, DAY 0-2, imaging DAY 3; FIG. 5
Text: A synthetic nucleic acid, morpholino antisense oligo (MO), which inhibits translation of zebrafish myocardial troponin T (tnnt2a), was used. The target sequence of tnnt2a-MO used for producing this cardiomyopathy model was 5′-[…]-3′ (SEQ ID NO: 1), and the target sequence of standard control MO (Control-MO) used as a negative control was 5′-[…]-3′ (SEQ ID NO: 2). Both MOs used were produced by Certified GeneTool, Inc. Standard control MO (Lis-MO) having the 3′ terminal labeled with a red fluorescent material, Lissamine, was used as an internal standard substance. An MO powder diluted with nuclease free water to 1 mM was used as a stock solution, and the final concentrations of the tnnt2a-MO and Control-MO were adjusted to 1.2 μM and the final concentration of Lis-MO was adjusted to 50 μM, using nuclease free water as a working solution for microinjection. […]
The acquired moving image was converted into sequence images, and the ventricular outline in each frame was recorded as Region of Interest (ROT). Subsequently, the major and minor axes of an ellipse approximating to the ROI on each sequence image were measured by Fit-to-Ellipse algorithm, the volume of the spheroid of each sequence image was calculated as a ventricular volume, and the peak filling rate (PFR: diastolic function) was measured from the rate of change in the obtained ventricular volume.

[4] = system: myocardial cells derived from iPS cells of normal subject; assay: Myocardial relaxation rate (SONY SI8000) in normal myocardial cells; format: cell-based; settings: ALA/SFC 10 μM/5 μM, 30 μM/1 μM, 100 μM/50 μM; measured Day 20 and Day 26 vs before administration (Day 15); FIG. 2
Description: as §1, §2, §3

## NCC(=O)CCC(=O)O [5-aminolevulinic acid]
[1]
  peak width at 50% of the height of a Ca-imaging waveform (uptake of Ca2+ into sarcoplasmic reticulum): obviously reduced
[2]
  relaxation rate of myocardial cells in hypertrophic cardiomyopathy: noticeably increased
[3]
  left ventricular diastolic function (peak filling rate, PFR): improved
[4]
  relaxation rate in normal myocardial cells: did not increase
